Patent publication US9695182B2, “Chemical compounds (derivatives) and their application for the treatment of oncological diseases” (LIMITED LIABILITY COMPANY “NATIONAL PHARMACEUTICAL …, priority 2013, dated 2017)

Test system: Karpas-299
Experiment: Antiproliferative activity on KARPAS-299 cells (MTS)
Assay type: cell-based
Conditions: Homo sapiens, concentration at which the number of living cells is reduced 2-fold compared with absence of compound
Description: Furthermore, antiproliferative activity of the compounds of this invention can be studied on cell lines KARPAS-299 of anaplastic large cell lymphoma according to the following procedure. KARPAS-299 cells cultured in RPMI 1640 growth medium, are transferred in duplicate to 96-well culture plate (10,000 cells per well) and a solution of the analytes in a growth medium is added to them at various concentrations (final volume in each well—100 μl). The solids were dissolved in DMSO and then the solution was diluted with DMSO to the desired concentration, mixed with an equal volume of growth medium and transferred to wells with the cells. The final concentration of compounds ranged from 0.5 nM to 10 μM. DMSO was used as a control (in the same amount as that of adding solutions of substances). After the cells incubation with the compounds for 72 hours, the number of viable cells was determined. For this purpose, old medium was removed, 100 μl of fresh medium and 40 μl of MTS solution, containing 5 mg/ml PBS were added to each well. The plate was incubated for 2 hours at 37° C., then 100 μl of DMSO was added to each well and mixed for 1 minute. Then, the optical density was determined at 490 nm and percentage of inhibition of proliferation was calculated in comparison with the control (containing no analytes).

Row | Compound | IC50
1 | O=C(NCCc1ccccc1)c1cc2c(nn1)NCCN2Cc1c(Cl)ccc(F)c1Cl | < 1000 nM
2 | COc1cc(N2CCC(N(C)C)CC2)ccc1Nc1cc2c(nn1)NCCN2Cc1c(Cl)ccc(F)c1Cl | < 100 nM
3 | C[C@H](c1c(Cl)ccc(F)c1Cl)N1CCNc2nnc(Nc3cccc(N4CCOCC4)c3)cc21 | < 100 nM
4 | CN1CCN(C(=O)c2ccc(NC(=O)c3cc4c(nn3)NCCN4Cc3cc(Cl)ccc3Cl)cc2)CC1 [drawing 231] | < 100 nM
5 | CC(C)c1noc(-c2cc3c(nn2)NCCN3Cc2c(Cl)ccc(F)c2Cl)n1 | < 1000 nM
6 | Clc1ccc(Cl)c(CN2CCNc3nnc(-c4nnc(C5CCNCC5)[nH]4)cc32)c1 [drawing 218] | < 100 nM
7 | O=C(c1cc2c(nn1)NCCN2Cc1c(Cl)ccc(F)c1Cl)N1CCN(c2ccccc2)CC1 | < 100 nM
8 | CN1CCC(c2nnc(-c3cc4c(nn3)NCCN4Cc3c(Cl)ccc(F)c3Cl)o2)CC1 | < 100 nM
9 | Fc1ccc(Cl)c(CN2CCNc3nnc(-c4ccc(N5CCOCC5)cc4)cc32)c1Cl | < 100 nM
10 | Fc1ccc(Cl)c(CN2CCNc3nnc(-c4nnc(C(F)(F)F)[nH]4)cc32)c1Cl | < 1000 nM
11 | C[C@H](c1c(Cl)ccc(F)c1Cl)N1CCNc2nnc(-c3nc(C4CCNCC4)no3)cc21 | < 100 nM
12 | C[C@H](c1cc(Cl)ccc1C(F)(F)F)N1CCNc2nnc(Nc3cccc(N4CCOCC4)c3)cc21 | < 100 nM
13 | C[C@H](c1c(Cl)ccc(F)c1Cl)N1CCNc2nnc(-c3ccc(N4CCCC4)nc3)cc21 | < 100 nM
14 | Fc1ccc(Cl)c(CN2CCNc3nnc(-c4nnc(C5CCNCC5)[nH]4)cc32)c1Cl [drawing 233] | < 100 nM
15 | O=C(Nc1ccc(N2CCOCC2)cc1)c1cc2c(nn1)NCCN2Cc1cc(Cl)ccc1Cl [drawing 232] | < 100 nM
16 | Clc1ccc(Cl)c(CN2CCNc3nnc(CNC4CCNCC4)cc32)c1 | < 1000 nM
17 | CC(c1c(Cl)ccc(F)c1Cl)N1CCNc2nnc(C(=O)Nc3ccc(C(=O)N4CCCC4)cc3)cc21 (stereo not shown) [drawing 228] | < 100 nM
18 | Clc1ccc(Cl)c(CN2CCNc3nnc(-c4nnc(C5CCNCC5)o4)cc32)c1 [drawing 234] | < 100 nM

Test system: not given
Experiment: not given
Conditions: in vivo; cited from earlier work

Row | Compound | penetration through the blood-brain barrier
19 | C[C@@H](Oc1cc(-c2cnn(C3CCNCC3)c2)cnc1N)c1c(Cl)ccc(F)c1Cl [Crizotinib] | does not penetrate through the blood-brain barrier

Test system: Karpas-299 cells
Experiment: Efficacy in animal model of anaplastic large cell lymphoma (Karpas-299 tumors)
Assay type: in vivo, SCID-mice
Conditions: 30 mg/kg daily by gavage, 23 days; ratio of average tumor volume treatment/control
Description: (§1) SCID-mice with tumors that have developed as a result of the introduction of Karpas-299 cells were used for the studies. When tumor size reached 220 mm^3 animals were divided into the treatment and control groups and were randomized by tumor size. The control animals received daily 0.3 ml of 0.5% of methylcellulose solution, animals of the treatment group—0.3 ml of 0.5% of methylcellulose suspension containing the drug in a test dose. The solutions were administered by gavage. The treatment continued for 23 days. The ratio of the average volume for the treatment/control groups (% T/C) was calculated after treatment to determine the effectiveness of inhibition of tumor growth. The analysis of the statistical significance using Dunnett's test was performed for the data collection. Effectiveness of the test compounds in a dose of 30 mg/kg is introduced below.

Row | Compound | % T/C
20 | Fc1ccc(Cl)c(CN2CCNc3nnc(-c4nnc(C5CCNCC5)[nH]4)cc32)c1Cl [drawing 246] | <40%
21 | CC(c1c(Cl)ccc(F)c1Cl)N1CCNc2nnc(C(=O)Nc3ccc(C(=O)N4CCCC4)cc3)cc21 (stereo not shown) [drawing 243] | <40%
22 | Clc1ccc(Cl)c(CN2CCNc3nnc(-c4nnc(C5CCNCC5)o4)cc32)c1 [drawing 247] | <40%
23 | Clc1ccc(Cl)c(CN2CCNc3nnc(-c4nnc(C5CCNCC5)[nH]4)cc32)c1 [drawing 242] | <40%
24 | CN1CCN(C(=O)c2ccc(NC(=O)c3cc4c(nn3)NCCN4Cc3cc(Cl)ccc3Cl)cc2)CC1 [drawing 244] | <40%
25 | O=C(Nc1ccc(N2CCOCC2)cc1)c1cc2c(nn1)NCCN2Cc1cc(Cl)ccc1Cl [drawing 245] | <40%

Test system: NCI-H3122 cells
Experiment: Efficacy in animal model of non-small cell lung cancer (NCI-H3122 tumors)
Assay type: in vivo, male athymic mice
Conditions: 30 mg/kg daily by gavage, 20 days; ratio of average tumor volume treatment/control
Description: as §1, with “The male athymic mice” for “SCID-mice with tumors that have developed as a result of the introduction of Karpas-299 cells”, “NCI-H3122 cells in an amount of 1×10^7 were administered in the form of 0.2 ml Matrigel solution (BD Pharmingen) in the left leg of the mouse under ketamine-xylazine anesthesia. One week after cells injection mice” for “When tumor size reached 220 mm^3 animals”, “and” for “and were”, “size. Tumor volume was calculated according to the formula V=0.5×W^2×L.” for “size.”, “group −0.3” for “group—0.3”, “20” for “23”

Row | Compound | % T/C
26 | Fc1ccc(Cl)c(CN2CCNc3nnc(-c4nnc(C5CCNCC5)[nH]4)cc32)c1Cl [drawing 240] | <40%
27 | CC(c1c(Cl)ccc(F)c1Cl)N1CCNc2nnc(C(=O)Nc3ccc(C(=O)N4CCCC4)cc3)cc21 (stereo not shown) [drawing 237] | <40%
28 | Clc1ccc(Cl)c(CN2CCNc3nnc(-c4nnc(C5CCNCC5)o4)cc32)c1 [drawing 241] | <40%
29 | O=C(Nc1ccc(N2CCOCC2)cc1)c1cc2c(nn1)NCCN2Cc1cc(Cl)ccc1Cl [drawing 239] | <40%
30 | CN1CCN(C(=O)c2ccc(NC(=O)c3cc4c(nn3)NCCN4Cc3cc(Cl)ccc3Cl)cc2)CC1 [drawing 238] | <40%
31 | Clc1ccc(Cl)c(CN2CCNc3nnc(-c4nnc(C5CCNCC5)[nH]4)cc32)c1 [drawing 236] | <40%
